≈ marks a conversion by molar mass, not a printed value. Read-outs that look alike come from different tables or passages of the source.
Key:
N. gonorrhoeae WHO X = assay: Liquid broth MIC in Fastidious broth; conditions: Neisseria gonorrhoeae
N. gonorrhoeae WHO K = assay: Liquid broth MIC in Fastidious broth; conditions: Neisseria gonorrhoeae
A. baumannii CDC-0036 = assay: microbe, parasite or virus in culture; type: cell-based; conditions: Acinetobacter baumannii, CDC0036, read-out: MIC, A. baumannii CDC-0036
[1] = molecular target: T1, PBP3 from Acinetobacter baumannii (ATCC 19606) (Acinetobacter baumannii, UniProt A0ABX6CK25); assay: Bocillin-FL fluorescence polarization competition binding, A. baumannii PBP3; conditions: fluorescence polarization competition binding assay using Bocillin-FL; read-out: A. baumannii PBP3 Potency
T1 sequence (A0ABX6CK25 64-610): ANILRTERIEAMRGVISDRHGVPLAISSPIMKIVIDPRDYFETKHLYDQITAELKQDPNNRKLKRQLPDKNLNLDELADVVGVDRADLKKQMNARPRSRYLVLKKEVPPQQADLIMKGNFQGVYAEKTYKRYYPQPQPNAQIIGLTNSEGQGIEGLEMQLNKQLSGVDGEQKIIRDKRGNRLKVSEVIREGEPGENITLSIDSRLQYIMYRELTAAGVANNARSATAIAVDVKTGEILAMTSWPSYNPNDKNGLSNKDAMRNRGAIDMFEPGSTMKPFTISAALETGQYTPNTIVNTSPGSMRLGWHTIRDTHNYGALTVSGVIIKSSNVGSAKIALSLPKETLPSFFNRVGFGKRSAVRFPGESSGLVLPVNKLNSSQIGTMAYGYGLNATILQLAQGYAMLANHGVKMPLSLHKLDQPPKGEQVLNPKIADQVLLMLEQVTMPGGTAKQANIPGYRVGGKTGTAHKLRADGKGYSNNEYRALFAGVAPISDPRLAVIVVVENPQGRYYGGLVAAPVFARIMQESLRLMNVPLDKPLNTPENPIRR
Outline: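 Purified PBP was preincubated with inhibitor (E. coli PBP3 1.5 μM, 30 min; P. aeruginosa PBP3 0.75 μM, A. baumannii PBP3 0.2 μM and PBP1a 1 μM, 15 min), then Bocillin-FL (0.1 μM; 0.05 μM for PBP1a) added and FP read up to 60 min. EC50 = 50% loss of bound probe.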

N. gonorrhoeae WHO Z = assay: Liquid broth MIC in Fastidious broth; conditions: Neisseria gonorrhoeae
N. gonorrhoeae WHO Q = assay: Liquid broth MIC in Fastidious broth; conditions: Neisseria gonorrhoeae
N. gonorrhoeae FA1090 = assay: Liquid broth MIC in Fastidious broth; conditions: Neisseria gonorrhoeae
P. aeruginosa CDC-0095 = assay: microbe, parasite or virus in culture; type: cell-based; conditions: Pseudomonas aeruginosa, CDC0095, read-out: Minimum inhibitory concentration, P. aeruginosa CDC-0095
N. gonorrhoeae WHO G = assay: Liquid broth MIC in Fastidious broth; conditions: Neisseria gonorrhoeae
N. gonorrhoeae WHO M = assay: Liquid broth MIC in Fastidious broth; conditions: Neisseria gonorrhoeae
A. baumannii 1258916 = assay: microbe, parasite or virus in culture; type: cell-based, Acinetobacter baumannii; conditions: Acinetobacter baumannii, 1258916, read-out: MIC, A. baumannii 1258916
[2] = read-out: Minimum Inhibitory Concentration, WHO X
[3] = read-out: Minimum Inhibitory Concentration, WHO K
[4] = read-out: Minimum Inhibitory Concentration, WHO Z
[5] = read-out: Minimum Inhibitory Concentration, WHO Q
[6] = FA1090, read-out: Minimum Inhibitory Concentration, FA 1090
[7] = read-out: Minimum Inhibitory Concentration, WHO G
[8] = read-out: Minimum Inhibitory Concentration, WHO M
[9] = read-out: Minimum Inhibitory Concentration (MIC), N. gonorrhoeae WHO X
[10] = read-out: Minimum Inhibitory Concentration (MIC), N. gonorrhoeae WHO K
[11] = read-out: Minimum Inhibitory Concentration (MIC), N. gonorrhoeae WHO Z
[12] = read-out: Minimum Inhibitory Concentration (MIC), N. gonorrhoeae WHO Q
[13] = FA1090, read-out: Minimum Inhibitory Concentration (MIC), N. gonorrhoeae FA 1090
[14] = read-out: Minimum Inhibitory Concentration (MIC), N. gonorrhoeae WHO G
[15] = read-out: Minimum Inhibitory Concentration (MIC), N. gonorrhoeae WHO M

Row | Structure (SMILES) | MIC (N. gonorrhoeae WHO X; [2]) | MIC (N. gonorrhoeae WHO K; [3]) | MIC (A. baumannii CDC-0036) | IC50 [1] | MIC (N. gonorrhoeae WHO Z; [4]) | MIC (N. gonorrhoeae WHO Q; [5]) | MIC (N. gonorrhoeae FA1090; [6]) | MIC (P. aeruginosa CDC-0095) | MIC (N. gonorrhoeae WHO G; [7]) | MIC (N. gonorrhoeae WHO M; [8]) | MIC (A. baumannii 1258916) | MIC (N. gonorrhoeae WHO X; [9]) | MIC (N. gonorrhoeae WHO K; [10]) | MIC (N. gonorrhoeae WHO Z; [11]) | MIC (N. gonorrhoeae WHO Q; [12]) | MIC (N. gonorrhoeae FA1090; [13]) | MIC (N. gonorrhoeae WHO G; [14]) | MIC (N. gonorrhoeae WHO M; [15])
1 | O=C(NCCN1CCN(C(=O)NC(C(=O)N[C@H]2Cc3ccc(F)c(C(=O)O)c3OB2O)c2cc(F)c(O)c(O)c2Cl)C1=O)c1cccnc1 (stereo partly drawn) [Example 246, (3R)-3-(2-(2-chloro-5-fluoro-3,4-dihydroxyphenyl)-2-(3-(2-(nicotinamido)ethyl)-2-oxoimidazolidine-1-carboxamido)acetamido)-7-fluoro-2-hydroxy-3,4-dihydro-2H-benzo[e][1,2]oxaborinine-8-carboxylic acid] | > 64 µg/mL | > 64 µg/mL | 2 to 4 µg/mL (≈ 2.85 to 5.69 µM) | < 10 µM | 16 to 32 µg/mL (≈ 22.8 to 45.5 µM) | > 64 µg/mL | 4 to 8 µg/mL (≈ 5.69 to 11.4 µM) | 2 to 4 µg/mL (≈ 2.85 to 5.69 µM) | 16 to 32 µg/mL (≈ 22.8 to 45.5 µM) | 16 to 32 µg/mL (≈ 22.8 to 45.5 µM) | < 1 µg/mL |  |  |  |  |  |  | 
2 | O=C(NCCCN1CCN(C(=O)NC(C(=O)N[C@H]2Cc3ccc(F)c(C(=O)O)c3OB2O)c2cc(F)c(O)c(O)c2Cl)C1=O)c1nccs1 (stereo partly drawn) [Example 257, (3R)-3-(2-(2-chloro-5-fluoro-3,4-dihydroxyphenyl)-2-(2-oxo-3-(3-(thiazole-2-carboxamido)propyl)imidazolidine-1-carboxamido)acetamido)-7-fluoro-2-hydroxy-3,4-dihydro-2H-benzo[e][1,2]oxaborinine-8-carboxylic acid] | > 64 µg/mL | > 64 µg/mL | 2 to 4 µg/mL (≈ 2.77 to 5.53 µM) | < 10 µM | 16 to 32 µg/mL (≈ 22.1 to 44.3 µM) | > 64 µg/mL | 4 to 8 µg/mL (≈ 5.53 to 11.1 µM) | 2 to 4 µg/mL (≈ 2.77 to 5.53 µM) | > 64 µg/mL | 16 to 32 µg/mL (≈ 22.1 to 44.3 µM) | < 1 µg/mL |  |  |  |  |  |  | 
3 | O=C(NCCCN1CCN(C(=O)NC(C(=O)N[C@H]2Cc3ccc(F)c(C(=O)O)c3OB2O)c2cc(F)c(O)c(O)c2Cl)C(=O)C1=O)Nc1cccnc1 (stereo partly drawn) [Example 213, (3R)-3-(2-(2-chloro-5-fluoro-3,4-dihydroxyphenyl)-2-(2,3-dioxo-4-(3-(3-(pyridin-3-yl)ureido)propyl)piperazine-1-carboxamido)acetamido)-7-fluoro-2-hydroxy-3,4-dihydro-2H-benzo[e][1,2]oxaborinine-8-carboxylic acid] |  |  | 2 to 4 µg/mL (≈ 2.63 to 5.26 µM) | < 10 µM |  |  |  | < 1 µg/mL |  |  | < 1 µg/mL | > 64 µg/mL | > 64 µg/mL | > 64 µg/mL | > 64 µg/mL | 1 to 2 µg/mL (≈ 1.32 to 2.63 µM) | 16 to 32 µg/mL (≈ 21.1 to 42.1 µM) | 16 to 32 µg/mL (≈ 21.1 to 42.1 µM)
4 | O=C(NCCCN1CCN(C(=O)NC(C(=O)N[C@H]2Cc3ccc(F)c(C(=O)O)c3OB2O)c2cc(F)c(O)c(O)c2Cl)C(=O)C1=O)Nc1ccncc1 (stereo partly drawn) [Example 228, (3R)-3-(2-(2-chloro-5-fluoro-3,4-dihydroxyphenyl)-2-(2,3-dioxo-4-(3-(3-(pyridin-4-yl)ureido)propyl)piperazine-1-carboxamido)acetamido)-7-fluoro-2-hydroxy-3,4-dihydro-2H-benzo[e][1,2]oxaborinine-8-carboxylic acid] |  |  | 2 to 4 µg/mL (≈ 2.63 to 5.26 µM) | < 10 µM |  |  |  | 2 to 4 µg/mL (≈ 2.63 to 5.26 µM) |  |  | < 1 µg/mL | > 64 µg/mL | > 64 µg/mL | > 64 µg/mL | > 64 µg/mL | 1 to 2 µg/mL (≈ 1.32 to 2.63 µM) | 16 to 32 µg/mL (≈ 21.1 to 42.1 µM) | 16 to 32 µg/mL (≈ 21.1 to 42.1 µM)

Source: US20240270762A1, “PENICILLIN-BINDING PROTEIN INHIBITORS” (priority 2021, published 2024)
